The values below come from patent publication US10696947B2, “Culture medium composition for maturating cardiomyocytes derived from pluripotent mammalian stem cells” (Ncardia B.V., priority 2013, dated 2020).

“Also recorded” adds a separate entry of the source.

Holding throughout (format): cell-based
In assay [1] the test system is foetal-like (immature) cardiomyocytes derived from PESC. Put plainly: Metabolic profile by TMRM assay (flow cytometry). The note with it: 100 ng/ml T3 in culture medium, 17 days, 5 nM TMRM, compared to medium lacking T3. Here is the method:
Foetal-like (immature) cardiomyocytes derived from PESC in in vitro culture were divided in two experimental groups. The first group was exposed to a culture medium composition as taught herein but which lacked T3 (control situation). The second group was exposed to a culture medium composition as taught herein but which comprised T3 (100 ng/ml). Both groups were incubated in their respective culture medium composition for 17 days. An amount of 5 nM TMRM (Invitrogen) was added in the respective media the day before measurement. Cells were dissociated using 5× Tryple, but with TMRM included in all solutions and also present during measurement, Measurements were performed on a Miltenyi MACSquant VYB flow cytometer.
A general note: A flow cytometer gives signals particle by particle.

Assay [2] concerns foetal-like (immature) cardiomyocytes derived from human pluripotent embryonic stem cells (PESCs). Put plainly: Morphological features by alpha-actinin immunofluorescence. The settings on record: 100 ng/ml T3 in culture medium composition, 5 days, compared to medium lacking T3. The method, then:
Foetal-like (immature) cardiomyocytes derived from PESC in in vitro culture were divided in two experimental groups. The first group was exposed to a culture medium composition as taught herein but which lacked T3 (control situation). The second group was exposed to a culture medium composition as taught herein but which comprised T3 (100 ng/ml). Both groups were incubated in their respective culture medium composition for 5 days, At the term of the treatment, cardiomyocytes from both experimental groups were fixed in 4% paraformaldehyde, permeabilised with phosphate buffer saline (PBS)/0.1% Triton X-100 (Sigma-Aldrich), and blocked with phosphate buffer saline (PBS)/0.1% Triton X-100 (Sigma-Aldrich) 1% BSA. Samples were incubated 1-hour at room temperature with a primary antibodies specific for the following: alpha-actinin (Eptomics Ab 68167) (at a concentration of 1/400), The primary antibody was detected with either Cy3- or Alexa-Fluor 647-conjugated secondary antibodies (at a concentration of 1/250). Images were captured using either a Leica SP5-STED or a Leica SP5 confocal laser-scanning microscope (Leica Microsystems).

Assay [3] shares this test system. Kind of assay: Electrophysiological properties by perforated patch clamp. The note with it: 100 ng/ml T3 in culture medium, 12 days, compared to medium lacking T3. Here is the method:
Foetal-like (immature) cardiomyocytes derived from PESC in in vitro culture were divided in two experimental groups. The first group was exposed to a culture medium composition as taught herein but which lacked T3 (control situation). The second group was exposed to a culture medium composition as taught herein but which comprised T3 (100 ng/ml). Both groups were incubated in their respective culture medium composition for 12 days. At the term of the treatment, foetal-like (immature) cardiomyocytes from both experimental groups were subjected to a patch clamp procedure.
Patch clamp electrophysiology was performed as described by Bellin, M. et al. EMBO J 32, 3161-3175 (2013)). using minor modifications. Action potentials from small groups of cells (5-10 cells) were measured with the perforated patch clamp technique using an Axopatch 200b amplifier (Molecular Devices) and low resistance patch pipettes (1.5-2.5 MΩ). Data acquisition and analyses of action potentials were performed with pClamp 10 (axon instruments) and custom made software. Action Potentials were corrected for the calculated liquid junction potential (−15 mV).
Action potentials from spontaneous beating cells were measured at […] using a modified Tyrode's solution containing (in mM): 140 NaCl, 5.4 KCl, 1.8 CaCl2, 1.0 MgCl2, 5.5 glucose, 5.0 HEPES; pH7.2 (NaOH). The pipette solution contained (in mM): 125 K-gluconate, 20 KCl, 5 NaCl, 0.22 amphotericin-B, 10 HEPES; pH 7.2 (KOH). The resting membrane potential (RMP), maximal upstroke velocity (dV/dt max), AP amplitude in mV (APA), and AP duration in milli-seconds (APD) at 20, 50 and 90% repolarization (APD50, and APD90, respectively) were analyzed. Upstroke velocity was calculated from the first derivative of the change in voltage as a function of time. Thus the maximum upstroke velocity (dV/dt max) is equal to the maximum positive value of the first derivative of the action potential. Data from 10 consecutive action potentials were averaged.
For orientation: Patch clamp records ionic current or voltage across a cell membrane.

For `N[C@@H](Cc1cc(I)c(Oc2ccc(O)c(I)c2)c(I)c1)C(=O)O` [T3, triiodothyronine], the “mitochondrial activity (TMRM-associated orange fluorescence)” value in assay [1] is given as “enhanced mitochondrial activity; also recorded: increased mitochondrial activity”. Besides, in assay [2], the “morphological features (maturation into adult-like cardiomyocytes)” value is “polarization of cells, improved sarcomeric organization, and elongated shape”. For the same compound, in assay [3], the “amplitude of the action potential” value is recorded as “greater amplitude of the action potential; also recorded: increased amplitude of the action potential”, the “maximal upstroke velocity (dV/dt max)” value was “greater maximal upstroke velocity; also recorded: increased maximum upstroke velocity” and the resting membrane potential entry is reported as “lower resting membrane potential”.
